According to patent publication US20250090875A9, “IMMUNOSTIMULATORY COMPOUNDS AND CONJUGATES” (Seagen Inc., priority 2021, published 2025):
Entries after “also recorded” stand apart in the source; their conditions may differ.

What was measured:
CT26 tumors = format: in vivo; settings: targeted ADC, intraperitoneal, every 7 days, 3 doses; for mice surviving at the end of the study: 6 mice per group
Excerpt: This example covers in vivo assessments of anti-tumor activity of ADCs with TLR7/8 agonists. An in vivo syngeneic system was used to assess the ability of the ADCs having TLR ⅞ agonists as the payload to induce immune responses and drive an anti-tumor immune response using a subcutaneous, heterotopic mouse colon carcinoma model (a CT26 system). Female Balb/c mice were implanted with 1×10^5 CT26 cells sub-cutaneously in the flank on day 0. When mean tumor size of 100 mm^3 (measured using the formula: Volume (mm^3)=0.5*Length*Width^2 where length is the longer dimension) was reached, the mice were randomized into treatment groups of 6 mice per group. Animals were then treated intraperitoneally with the indicated treatment every 7 days, for 3 doses total. Stock concentrations of the ADCs were diluted to the appropriate concentration and injected into animals in 100 μL volumes. Tumor length and width and mouse weights were measured throughout the study and tumor volume was calculated using the formula above. Animals were followed until tumor volume reached 1000 mm^3, when animals were then euthanized.

Renca tumors = assay: Renca kidney carcinoma model in Balb/c mice; format: in vivo, mouse; settings: targeted or non-targeted conjugates, N1 vs C4 linkage, different linkers, with or without PEG
Protocol: The difference in anti-tumor activity of the S18a and S18b conjugates was also assessed in the Renca kidney model. In this model, mice bearing Renca tumors were treated q7dx3 when tumors reached ˜100 mm^3 as indicated, and followed for mean group tumor growth (FIG. 14, top) and survival (FIG. 14, bottom) over time.
This example covers cancer treatment with EphA2 targeted TLR agonists. […] Balb/c mice were implanted with Renca tumor cells and when cells reached 100 mm^3 they were treated Q7dx3 treatments with 2.4 mg/kg of the indicated IDC, either non targeting isotype or an EphA2 targeting mAb.

primary human PBMCs = assay: Cytokine induction in primary human PBMCs by small molecule TLR7/8 agonists (Luminex); format: cell-based; settings: for potency and activity of cytokine induction (IL6, TNFα, MCP1, IP10): ranking; for potency to activate human PBMCs (IL6, IL1b, MIP1b, TNFα): compared with S18a, FIG. 29
Protocol: This example covers dose dependent human immune cell activation by small molecule TLR7/8 agonists. Primary human PBMCs were isolated from peripheral whole blood from human donors and were subjected to treatment with increasing concentrations of the agonists diluted in PBS. Cell culture supernatants were harvested 24 h after treatment and analyzed for induction of cytokines via multiplex ELISAs (Luminex).
Several small molecule TLR7/8 agonists were assessed for their ability to activate human immune cells in a dose dependent manner. Primary human PBMCs were isolated from peripheral whole blood from human donors and were subjected to treatment with increasing concentrations of the agonists diluted in PBS. 24 h after treatment cell culture supernatants were harvested and analyzed for induction of cytokines via multiplex ELISAs (Luminex).

hTLR7 = biological target: T1, hTLR7 (Homo sapiens, UniProt Q9NYK1); assay: HEK Blue hTLR7 cell assay of free TLR7/8 agonists; format: cell-based; settings: HEK Blue hTLR7 cells, free agonist
T1 construct: expressed in transfected cells; host or cells: HEK Blue hTLR7 cells
T1 sequence (Q9NYK1 27-1049): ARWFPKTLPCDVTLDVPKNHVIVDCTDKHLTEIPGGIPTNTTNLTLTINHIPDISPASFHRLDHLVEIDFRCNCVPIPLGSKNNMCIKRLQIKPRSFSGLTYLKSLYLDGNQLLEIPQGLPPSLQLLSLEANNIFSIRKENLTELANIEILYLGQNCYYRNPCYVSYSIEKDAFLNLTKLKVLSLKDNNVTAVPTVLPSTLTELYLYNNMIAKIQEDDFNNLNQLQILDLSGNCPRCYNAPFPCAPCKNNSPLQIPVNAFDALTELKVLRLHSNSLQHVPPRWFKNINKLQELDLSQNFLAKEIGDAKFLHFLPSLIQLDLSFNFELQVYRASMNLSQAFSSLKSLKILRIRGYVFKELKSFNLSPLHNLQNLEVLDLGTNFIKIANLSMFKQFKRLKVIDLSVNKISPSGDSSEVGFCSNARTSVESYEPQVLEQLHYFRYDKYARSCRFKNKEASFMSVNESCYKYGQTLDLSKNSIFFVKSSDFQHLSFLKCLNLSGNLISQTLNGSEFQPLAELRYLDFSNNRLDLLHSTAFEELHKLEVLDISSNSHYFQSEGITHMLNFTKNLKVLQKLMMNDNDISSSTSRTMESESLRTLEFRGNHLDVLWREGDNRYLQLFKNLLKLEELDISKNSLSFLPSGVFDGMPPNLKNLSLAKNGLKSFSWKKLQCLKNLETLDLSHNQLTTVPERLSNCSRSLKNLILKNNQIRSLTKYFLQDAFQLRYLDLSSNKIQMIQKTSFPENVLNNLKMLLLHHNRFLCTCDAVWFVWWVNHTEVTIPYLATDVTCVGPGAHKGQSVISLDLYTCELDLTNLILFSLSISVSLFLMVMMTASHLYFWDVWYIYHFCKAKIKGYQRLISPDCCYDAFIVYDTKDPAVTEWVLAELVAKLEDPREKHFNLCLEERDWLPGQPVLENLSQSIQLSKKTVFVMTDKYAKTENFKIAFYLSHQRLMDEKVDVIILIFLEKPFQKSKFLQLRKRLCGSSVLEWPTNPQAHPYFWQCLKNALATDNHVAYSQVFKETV
Protocol: This example covers toll-like receptor 7 (TLR7) and toll-like receptor 8 (TLR8) selectivity of imidazoquinoline agonists. Assessment of TLR7 and TLR8 selectivity for the free TLR7/8 agonists was performed using HEK Blue hTLR7 and hTLR8 cells over a large dose range of compounds. […] Activities were determined based on calculated EC50 (in μM) in each cell line, and are summarized in TABLE 4 below, with columns providing targets and rows providing compounds.

In the case of `CCCCc1nc2c(N)nc3cc(C(=O)OC)ccc3c2n1Cc1ccc(CNC(=O)OCc2ccc(O[C@H]3O[C@H](CO)[C@@H](O)[C@H](O)[C@@H]3O)c(NC(=O)CCNC(=O)[C@H](CCCCNC(=O)CCOCCOCCOCCOCCOCCOCCOCCOCCOCCOCCOCCOC)NC(=O)CCN3C(=O)C=CC3=O)c2)cc1` [Compound 4, methyl 4-amino-2-butyl-1-(4-(((((3-((S)-44-(3-(2,5-dioxo-2,5-dihydro-1H-pyrrol-1-yl)propanamido)-38,45-dioxo-2,5,8,11,14,17,20,23,26,29,32,35-dodecaoxa-39,46-diazanonatetracontan-49-amido)-4-(((2R,3 S,4 S, 5 S,6R)-3,4,5-trihydroxy-6-(hydroxymethyl)tetrahydro-2H-pyran-2-yl)oxy)benzyl)oxy)carbonyl)amino)methyl)benzyl)-1H-imidazo[4,5-c]quinoline-7-carboxylate], the “tumor growth delay and survival” value (CT26 tumors) is reported as “some tumor growth delay and survival benefit” and the “mice surviving at the end of the study” value (CT26 tumors) is reported as “⅙”.

For `CCCCc1nc2c(N)nc3cc(C(=O)OC)ccc3c2n1CCCCCNC(=O)OCc1ccc(O[C@H]2O[C@H](CO)[C@@H](O)[C@H](O)[C@@H]2O)c(NC(=O)CCNC(=O)[C@H](CCCCNC(=O)CCOCCOCCOCCOCCOCCOCCOCCOCCOCCOCCOCCOC)NC(=O)CCN2C(=O)C=CC2=O)c1` [Compound 7, Methyl 4-amino-2-butyl-1-(5-((((3-((S)-44-(3-(2,5-dioxo-2,5-dihydro-1H-pyrrol-1-yl)propanamido)-38,45-dioxo-2,5,8,11,14,17,20,23,26,29,32,35-dodecaoxa-39,46-diazanonatetracontan-49-amido)-4-(((2R,3 S,4 S, 5 S,6R)-3,4,5-trihydroxy-6-(hydroxymethyl)tetrahydro-2H-pyran-2-yl)oxy)benzyl)oxy)carbonyl)amino)pentyl)-1H-imidazo[4,5-c]quinoline-7-carboxylate], the “tumor growth delay and survival” value (CT26 tumors) was “some tumor growth delay over the untreated group” and the “mice surviving at the end of the study” value (CT26 tumors) was “no animals ultimately survived”.

`CCCCc1nc2c(N)nc3cc(C(=O)O)ccc3c2n1CCCCCNC(=O)OCc1ccc(O[C@H]2O[C@H](CO)[C@@H](O)[C@H](O)[C@@H]2O)c(NC(=O)CCNC(=O)[C@H](CCCCNC(=O)CCOCCOCCOCCOCCOCCOCCOCCOCCOCCOCCOCCOC)NC(=O)CCN2C(=O)C=CC2=O)c1` [Compound 8, 4-amino-2-butyl-1-(5-((((3-((S)-44-(3-(2,5-dioxo-2,5-dihydro-1H-pyrrol-1-yl)propanamido)-38,45-dioxo-2,5,8,11,14,17,20,23,26,29,32,35-dodecaoxa-39,46-diazanonatetracontan-49-amido)-4-(((2R,3 S,4 S, 5 S,6R)-3,4,5-trihydroxy-6-(hydroxymethyl)tetrahydro-2H-pyran-2-yl)oxy)benzyl)oxy)carbonyl)amino)pentyl)-1H-imidazo[4,5-c]quinoline-7-carboxylic acid] was tested, and the “tumor growth delay and survival” value (CT26 tumors) was “greatly increased tumor growth delay and survival”.

In the case of `CCCCc1nc2c(N)nc3cc(C(=O)O)ccc3c2n1Cc1ccc(C[N+](C)(C)Cc2ccc(O[C@H]3O[C@H](CO)[C@@H](O)[C@H](O)[C@@H]3O)c(NC(=O)CCNC(=O)[C@H](CCCCNC(=O)CCOCCOCCOCCOCCOCCOCCOCCOCCOCCOCCOCCOC)NC(=O)CCN3C(=O)C=CC3=O)c2)cc1` [Compound 9, N-(4-((4-amino-2-butyl-7-carboxy-1H-imidazo[4,5-c]quinolin-1-yl)methyl)benzyl)-1-(3-((S)-44-(3-(2,5-dioxo-2,5-dihydro-1H-pyrrol-1-yl)propanamido)-38,45-dioxo-2,5,8,11,14,17,20,23,26,29,32,35-dodecaoxa-39,46-diazanonatetracontan-49-amido)-4-(((2R,3 S,4 S, 5 S,6R)-3,4,5-trihydroxy-6-(hydroxymethyl)tetrahydro-2H-pyran-2-yl)oxy)phenyl)-N,N-dimethylmethanaminium], the “anti-tumor activity (tumor volume, survival)” value (Renca tumors) is reported as “greatest potency; also recorded: superior potency” and the “tumor growth delay and survival” value (CT26 tumors) is reported as “potent tumor growth delay and a long-term overall survival benefit”.

`CCCCc1nc2c(N)nc3cc(C(=O)O)ccc3c2n1Cc1ccc(C[N+](C)(C)Cc2ccc(O[C@H]3O[C@H](CO)[C@@H](O)[C@H](O)[C@@H]3O)c(NC(=O)CCNC(=O)CCN3C(=O)C=CC3=O)c2)cc1` [Compound 14, N-(4-((4-amino-2-butyl-7-carboxy-1H-imidazo[4,5-c]quinolin-1-yl)methyl)benzyl)-1-(3-(3-(3-(2,5-dioxo-2,5-dihydro-1H-pyrrol-1-yl)propanamido)propanamido)-4-(((2R,3S,4S,5S,6R)-3,4,5-trihydroxy-6-(hydroxymethyl)tetrahydro-2H-pyran-2-yl)oxy)phenyl)-N,N-dimethylmethanaminium] was tested, and the “anti-tumor activity (tumor volume, survival)” value (Renca tumors) was “greatest potency”.

`CCCCc1nc2c(N)nc3cc(C(=O)O)ccc3c2n1CC(C)O` (centres unmarked) [S5b] was tested, and the “IFNα, IL1β, MIP1β, TNFα induction, C7 carboxylic acid vs parent C7 methyl ester” value (primary human PBMCs; free drug, FIG. 3) was “markedly lower potency and activity than its corresponding parent methyl ester compound”.

`CCCCc1nc2c(N)nc3cc(C(=O)OC)ccc3c2n1Cc1ccc(CN)cc1` [S8a] was tested, and the “concentration eliciting cytokine responses (IFNg, IL1β, MIP1β, TNFα)” value (primary human PBMCs; single donor, 24 h, FIG. 1) was < 0.1 µM.

With `CCCCc1nc2c(N)nc3cc(C(=O)OC)ccc3c2n1Cc1ccc(CN2CCCC2)cc1` [S65a] the “potency to induce MCP1 and IP10” value (primary human PBMCs; free drug, FIG. 30) was “enhanced potency to induce MCP1 and IP10 compared to compounds S18a” and the “potency and activity of cytokine induction (IL6, TNFα, MCP1, IP10)” value (shortened to “potency and activity”) (primary human PBMCs; free drug, FIG. 30) was “other two most potent compounds”.

Compound `CCCCc1nc2c(N)nc3cc(C(=O)OC)ccc3c2n1CCc1ccc(CN)cc1` [S76a] has an EC50 (hTLR7) of 3.44 µM.

`CCCCc1nc2c(N)nc3cc(C(=O)OC)ccc3c2n1CCCCCN(C)C` [S77a] was tested, and the EC50 (hTLR7) was 2.82 µM.

`COCCc1nc2c(N)nc3cc(C(=O)OC)ccc3c2n1Cc1ccc(CN)cc1` [S78a] gave an EC50 (hTLR7) of 3.78 µM.

In the case of `CCCCc1nc2c(N)nc3cc(C(=O)OC)ccc3c2n1Cc1ccc(CN2CCOCC2)cc1` [S81a], the “maximal level of IL6, MCP1 and IP10” value (primary human PBMCs; free drug, FIG. 30) is reported as “same maximal level of IL6, MCP1 and IP10 as the other compounds”, the “maximum level of IL10, IL1b or TNFα” value (primary human PBMCs; free drug, FIG. 30) is reported as “not able to reach the same maximum level” and the “potency and activity” value (primary human PBMCs; free drug, FIG. 30) is reported as “greater activity than compound S82a”. The “TLR7 vs TLR8 binding profile” value (primary human PBMCs; inferred from the cytokine profile) was “TLR7 vs TLR8 skewed binding profile”.

In the case of `CCCCc1nc2c(N)nc3cc(C(=O)O)ccc3c2[nH]1` [S82b], the “potency and activity” value (primary human PBMCs; free drug, FIG. 30) is reported as “greater activity than compound S84a”.

`CCCCc1nc2c(N)nc3cc(C(=O)OC)ccc3c2n1Cc1ccc(CN(CC)CC)cc1` [S83a] was tested, and the “potency to activate human PBMCs (IL6, IL1b, MIP1b, TNFα)” value (primary human PBMCs; free drug) was “slightly enhanced potency” and the “potency and activity” value (primary human PBMCs; free drug, FIG. 30) was “highest maximal cytokine and potency to induce cytokine of all compounds tested”.

In the case of `CCCCc1nc2c(N)nc3cc(C(=O)OC)ccc3c2n1Cc1ccc(CN2CCCCC2)cc1` [S85a], the “potency to activate human PBMCs (IL6, IL1b, MIP1b, TNFα)” value (primary human PBMCs; free drug) is reported as “slightly decreased potency”.
